Measurements: patent US7022737B2, “Manipulating nitrosative stress to kill pathologic microbes, pathologic helminths and pathologically proliferating cells or to upregulate nitrosative stress defenses” (Duke University, priority 1996, dated 2006)

Key:
rat kidney gamma-GCS = molecular target: T1, rat kidney gamma-GCS (Rattus norvegicus, UniProt P19468); assay: Inhibition of mammalian gamma-GCS, protocol similar to E. coli enzyme; format: biochemical
T1 construct: highly purified rat kidney gamma-GCS; from tissue; host or cells: rat kidney

E. coli [1] = settings: chloramphenicol alone; cited from earlier work
Actinomycetes israelii = assay: Patient infected with Actinomycetes israelii; format: in vivo; settings: 1 mg/kg four times per day i.v.
Description: A patient infected with Actinomycetes israelii has a low-grade fever, non-productive cough, and occasional hemoptysis.

Streptomycetes = assay: Immunocompromised patient with Streptomycetes lesion; format: in vivo; settings: 4 mmol/kg three times a day p.o. with trimethoprim and sulfamethoxazole, one month
Description: An immunocompromised patient recovering from bone marrow transplantation develops a lump in their cheek at a place previously scratched by a garden implement. A culture obtained from the lump is positive for Streptomycetes. The patient is given DL-α-amino-δ-butylthio valeric acid-SR-sulfoximine at a dose of 4 mmol/kg body weight three times a day p.o. The patient is also given trimethoprim (160 mg twice a day) and sulfamethoxazole (800 mg twice a day) for one month.

S. typhimurium = settings: J. Gen. Microbiol. 72, 291–301 (1972); cited from earlier work
mycoplasma = settings: 250 mg three times a day
[2] = test system: metastatic malignant melanoma; assay: Patient with metastatic malignant melanoma; format: in vivo; settings: L-buthionine-S-sulfoximine 2 mmol/kg p.o. every 4 hours and hydroxyurea 10 mg/kg p.o., one week
Description: A person […] and a history of surgery five years previously to remove malignant melanotic nevi from their upper back and chest is found to have blood in their stool on routine physical examination. […] The patient is administered L-buthionine-S-sulfoximine (2 mmol/kg) p.o. every 4 hours for one week and is given 10 mg/kg of hydroxyurea p.o. 1 hour after every third dose of L-buthionine-S-sulfoximine. […] The patient shown no further evidence of metastases during a six month follow-up.

athlete's foot = assay: Patients with athlete's foot; format: in vivo; settings: 50 mM added to miconazole cream
Description: A runner develops athlete's foot. […] They substitute a cream containing the same ingredients, with the exception that S-nitroso-N-acetyl cysteine has been added so as to be present at a concentration of 50 mM.
A marathon runner develops athlete's foot. They treat themself with a topical mixture of inorganic nitrite, acetic acid and thiol in a cream base.

E. coli [3] = assay: Patients with E. coli septicemia; format: in vivo
Description: A person with fever, mild hypotension, and moderate hematuria has blood and urine cultures that are positive for E. coli. They are given a diagnosis of E. coli septicemia and urinary tract infection. […]
A person with E. coli sepsis presents feeling nauseated and gravely ill. However, their blood pressure is stable. They receive a standard regimen of IV antibiotics, including ampicillin and gentamicin as well as the siderophore ferrioxamine B at a dose of 10 mg/kg.
A person with E. coli sepsis presents with a blood pressure of 80/50 mm Hg. Broad spectrum antibiotics are initiated including ampicillin and gentamicin. […] The patient then receives an intravenous dose of nitrosated chloramphenicol, 12.5 mg four times/day IV together with methylene blue IV at a dose of 5 mg/kg as well as fluid support.

Chlamydia trachomatous = assay: Patients with Chlamydia cervicitis and vaginitis; format: in vivo; settings: α-ethyl BSO 4 mmol/kg and nitrate ester of chloramphenicol 12.5 mg/kg, each four times a day p.o.
Description: A person with a history of multiple sexual partners and recurrent urinary tract infections presents with cervicitis and vaginitis of four days duration. The patient complains of pain and vaginal discharge.

rickettsia = format: in vivo; settings: 4 mmol/kg four times a day p.o. with chloramphenicol 12.5 mg four times a day p.o.
[4] = molecular target: T2, E. coli gamma-glutamylcysteine synthetase (Escherichia coli, UniProt P0A6W9); assay: Inactivation of E. coli gamma-GCS by homocysteine sulfoximines (preincubation with ATP, residual activity by coupled PK/LDH assay); format: biochemical; settings: on an active isomer basis
T2 construct: made in house
Description: E. coli gamma-GCS was isolated from bacterial cells engineered to overexpress the enzyme; the isolation procedure was similar to that used previously to isolate mammalian gamma-GCS. […] The enzyme was assayed in reaction mixtures (final volume=1.0 ml) containing: 150 mM Tris·HCl, pH 8.2, 100 mM KCl, 25 mM MgCl2, 7.5 mM ATP, 7.5 mM phosphoenolpyruvate, 0.3 mM EDTA, 10 mM L-glutamate, 10 mM L-α-aminobutyrate (an L-cysteine analog), 0.3 mM NADH, 5 IU pyruvate kinase, and 5 IU lactate dehydrogenase. Reaction was initiated by adding gamma-GCS; in control studies, L-α-aminobutyrate was omitted from the reaction mixture. In this assay, pyruvate kinase (PK) and lactate dehydrogenase (LDH) are added in excess to detect formation of ADP, one of the products of the gamma-GCS reaction. The relevant enzyme reactions are shown as equations 1–3 below. Oxidation of NADH to NAD^+ is followed and quantitated spectrophotometrically at 340 nm (1 μmol oxidation gives ΔOD=−6.2) and is directly proportional to product formation by gamma-GCS. [drawing 2]
Inhibition by homocysteine sulfoximines was carried out by preincubating the E. coli gamma-GCS with potential inhibitors in the presence of ATP and then removing aliquots of that mixture at specific times and assaying for residual activity using the assay procedure described above. The preincubation reaction mixtures contained (final volume=400 μl) the following: 210 mM Tris·HCl, pH 8.2, 142 mM KCl, 36 mM MgCl2, 10 mM ATP, 0.4 mM EDTA, various amounts of sulfoximine, and gamma-GCS. At intervals, 50 μl aliquots were removed and added to 1.0 ml assay reaction mixtures to determine residual activity spectrophotometrically. Results of a study indicate that E. coli gamma-GCS loses about 27% of its activity over 30 minutes in the absence of added inhibitors; this loss of activity represents an inherent instability in the enzyme when incubated under these reaction conditions in this particular experiment. […]

E. coli [5] = assay: Patient with E. coli caused gastroenteritis with bloody diarrhea; format: in vivo
Description: A patient with E. coli caused gastroenteritis with bloody diarrhea is administered α-ethyl-L-buthionine-S-sulfoximine (hereinafter α-ethyl BSO) orally at a dose of 10 mmol/kg body weight four times a day.
A patient with E. coli caused gastroenteritis and bloody diarrhea is administered α-ethyl BSO orally at a dose of 10 mmol/kg body weight four times a day. In addition, the patient is given chloramphenicol orally at a dose of 12.5 mg/kg four times a day. Bloody diarrhea resolved in 36 hours.

oral thrush = assay: Patients with oral thrush; format: in vivo; settings: 2 cc of 50 mM, swish and spit, three times/day
Description: An immunocompromised person who is status-post recent chemotherapy develops oral thrush.
A person with leukemia develops oral thrush and is given 2 cc of 50 mM S-nitrosoglutathione, swish and spit, three times/day.
An immunocompromised person with HIV and a low CD4 count develops oral thrush. They are given 5 cc of a solution of 10 mM nitrate.

trypanosomes = assay: Patient with trypanosome infection; format: in vivo; settings: L-buthionine-S-sulfoximine 3 mmol/kg p.o. every 4 hours and S-nitrosoglutathione iv 10 mg/kg every 8 hours, one week
Description: A person presents with high fever, moderate lymphadenopathy and reports that they have lost 40 pounds in the last month, two months after returning from a safari in sub-Saharan Africa. On questioning, the patient reports having developed during the safari an ulcer on their forearm two days following a bite by a fly. […] The patient is hospitalized and given L-buthionine-S-sulfoximine at a dose of 3 mmol/kg p.o. every 4 hours for one week. In addition, the patient receives S-nitrosoglutathione iv at a dose of 10 mg/kg every 8 hours for one week.

[6] = test system: mixed flora and gram-negativerods; assay: Diabetic patient with infected skin ulcer; format: in vivo; settings: topical cream with S-nitrosoglutathione, oxidized glutathione and dinitrophenacyl glutathione
Description: A patient with diabetes develops a skin ulcer on the lower aspect of their left leg. Cultures grow mixed flora and gram-negativerods. A topical cream is applied that contains S-nitrosoglutathione, oxidized glutathione and the glutathione S-conjugate dinitrophenacyl glutathione.

T1 sequence (P19468 whole entry): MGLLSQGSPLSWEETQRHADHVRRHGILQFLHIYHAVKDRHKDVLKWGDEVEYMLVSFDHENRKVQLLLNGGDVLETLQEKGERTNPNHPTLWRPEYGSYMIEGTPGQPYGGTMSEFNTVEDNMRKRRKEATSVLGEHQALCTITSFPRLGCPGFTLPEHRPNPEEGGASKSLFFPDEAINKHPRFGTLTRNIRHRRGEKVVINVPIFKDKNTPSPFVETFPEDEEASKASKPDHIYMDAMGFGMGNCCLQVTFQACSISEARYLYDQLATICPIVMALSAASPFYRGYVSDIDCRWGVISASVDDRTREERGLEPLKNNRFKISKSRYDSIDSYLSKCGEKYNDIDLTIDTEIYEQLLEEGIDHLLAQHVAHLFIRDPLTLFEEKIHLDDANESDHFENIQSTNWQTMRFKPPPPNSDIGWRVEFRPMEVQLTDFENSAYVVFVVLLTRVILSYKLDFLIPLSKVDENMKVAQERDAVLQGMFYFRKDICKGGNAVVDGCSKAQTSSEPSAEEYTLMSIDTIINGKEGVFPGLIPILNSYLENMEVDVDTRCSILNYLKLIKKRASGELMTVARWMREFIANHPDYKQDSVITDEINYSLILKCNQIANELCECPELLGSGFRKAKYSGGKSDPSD
T1 sequence (P48508 whole entry partner): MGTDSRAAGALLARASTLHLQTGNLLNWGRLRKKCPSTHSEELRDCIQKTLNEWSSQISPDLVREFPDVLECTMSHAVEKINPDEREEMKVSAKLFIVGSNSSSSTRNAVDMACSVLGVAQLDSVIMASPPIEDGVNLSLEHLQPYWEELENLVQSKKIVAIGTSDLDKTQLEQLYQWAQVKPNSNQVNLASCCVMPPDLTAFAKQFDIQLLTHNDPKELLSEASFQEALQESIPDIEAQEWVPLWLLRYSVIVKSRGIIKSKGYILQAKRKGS
T2 sequence (P0A6W9 whole entry): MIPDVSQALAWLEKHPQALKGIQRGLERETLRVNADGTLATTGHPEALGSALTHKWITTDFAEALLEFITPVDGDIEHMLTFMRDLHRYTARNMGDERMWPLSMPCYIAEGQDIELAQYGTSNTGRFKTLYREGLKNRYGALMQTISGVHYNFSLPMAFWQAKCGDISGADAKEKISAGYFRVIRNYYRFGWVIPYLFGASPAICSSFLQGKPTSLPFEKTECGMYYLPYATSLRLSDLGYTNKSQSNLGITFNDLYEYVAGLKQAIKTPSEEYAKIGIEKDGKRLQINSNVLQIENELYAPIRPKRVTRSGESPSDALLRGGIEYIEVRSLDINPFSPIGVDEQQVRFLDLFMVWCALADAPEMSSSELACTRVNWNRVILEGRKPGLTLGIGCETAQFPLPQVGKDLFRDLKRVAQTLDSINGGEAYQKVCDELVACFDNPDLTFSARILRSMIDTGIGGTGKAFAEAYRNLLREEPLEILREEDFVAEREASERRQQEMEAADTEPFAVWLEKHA

CCCCS(=N)(=O)CCC(N)(CC)C(=O)O (racemic) [α-ethyl-DL-buthionine-SR-sulfoximine, α-Ethyl-D,L-buthionine-R,S-sulfoximine]
effectiveness as inhibitor relative to L-buthionine-S-sulfoximine (rat kidney gamma-GCS; highly purified rat kidney enzyme, DL,SR mixture): 0.025% | melting point: 203 to 205 °C

O=C(N[C@H](CO)[C@H](O)c1ccc([N+](=O)[O-])cc1)C(Cl)Cl [Chloramphenicol, chloramphenicol]
usual time to effect (E. coli [1]): normally has effect in three days

serinyl-S-nitrosocysteinyl-gluatamine
clinical outcome (Actinomycetes israelii): symptoms resolve over three weeks

CCCCS(=N)(=O)CCCC(N)C(=O)O (racemic) [DL-α-amino-δ-butylthio valeric acid-SR-sulfoximine]
clinical outcome (Streptomycetes): lesion in patient's cheek resolves completely

c1nc[nH]n1 [1,2,4-trazole]
bacterial growth (S. typhimurium): inhibiting the growth of S. typhimurium

CC[C@H]1OC(=O)[C@H](C)[C@@H](O[C@H]2C[C@@](C)(OC)[C@@H](O)[C@H](C)O2)[C@H](C)[C@@H](O[C@@H]2O[C@H](C)C[C@H](N(C)C)[C@H]2O)[C@](C)(O)C[C@@H](C)C(=O)[C@H](C)[C@@H](O)[C@]1(C)O [erythromycin]
clinical outcome (mycoplasma): symptoms linger

NC(=O)NO [hydroxyurea]
reduction in size of metastatic tumor [2]: 30%

CC(=O)N[C@@H](CSN=O)C(=O)O [S-nitroso-N-acetyl cysteine]
clinical outcome (athlete's foot): symptoms improve over seven days

CCCCS(=N)(=O)CCC(N)(CC)C(=O)O [α-ethyl-L-buthionine-S-sulfoximine]
inhibitory activity relative to L-buthionine-S-sulfoximine (rat kidney gamma-GCS; expressed on the basis of the active isomer): about 0.1% | clinical outcome (E. coli [3]; resistant to conventional antibiotics, 4 mmol/kg four times a day p.o. plus hyperbaric 100% oxygen, ampicillin and gentamicin continued): symptoms resolve within four days | clinical outcome (E. coli [3]; septicemia and urinary tract infection, α-ethyl BSO 4 mmol/kg four times a day p.o., S-nitroso-gamma-methyl-L-homocysteine 50 μg/kg i.v., gentamicin): symptoms resolve and blood and urine cultures are negative for E. coli after two weeks | time to resolution of infection (Chlamydia trachomatous): 10 days | time until patient becomes well (rickettsia): 10 days | effectiveness as inhibitor relative to L-S-BSO [4]: about 20% | time to resolution of bloody diarrhea (E. coli [5]; 10 mmol/kg orally four times a day plus chloramphenicol 12.5 mg/kg orally four times a day): 36 h | clinical outcome (E. coli [5]; orally 10 mmol/kg four times a day): Bloody diarrhea resolved over four days

N[C@@H](CCC(=O)N[C@@H](CSN=O)C(=O)NCC(=O)O)C(=O)O [S-nitrosoglutathione]
clinical outcome (oral thrush): much improved in three days | clinical outcome (trypanosomes): blood smear is free of trypanosomes | clinical outcome [6]: culture of the ulcer becomes sterile over three days
